Our source for the IC50 values is patent publication US20240148821A1, “PHARMACEUTICAL USE OF CYCLIC PEPTIDE COMPOUND” (CHUGAI SEIYAKU KABUSHIKI KAISHA, priority 2021, published 2024).

Bridge positions count the residues as written; N and C are the ends. Square brackets hold non-standard residues; d marks the D form. Peptide text beside a SMILES is read from it. * marks the point of attachment. hPhe(3-Cl-4-CF3) = N[C@@H](CCc1ccc(C(F)(F)F)c(Cl)c1)C(=O)O; NMeGly(cPent) = CN[C@H](C(=O)O)C1CCCC1; Phe(3-I) = N[C@@H](Cc1cccc(I)c1)C(=O)O; NMeY = CN[C@@H](Cc1ccc(O)cc1)C(=O)O; NMeCha = CN[C@@H](CC1CCCCC1)C(=O)O; cisHyp = O=C(O)[C@@H]1C[C@H](O)CN1; Hyp = O=C(O)[C@@H]1C[C@@H](O)CN1; NMeChg = CN[C@H](C(=O)O)C1CCCCC1; NMeE = CN[C@@H](CCC(=O)O)C(=O)O; NMeD = CN[C@@H](CC(=O)O)C(=O)O; NMeL = CN[C@@H](CC(C)C)C(=O)O; Azetidin(1-yl) = C1CN(*)C1; Morpholide = C1CN(*)CCO1; NMeA = CN[C@@H](C)C(=O)O; Nle = CCCC[C@H](N)C(=O)O; Piperidide = C1CCN(*)CC1; Pyrrolidide = C1CCN(*)C1; Ac5c = NC1(C(=O)O)CCCC1; Aze = O=C(O)[C@@H]1CCN1; Ethyl(2,2-F2) = FC(F)C*; Ethyl(2-OH) = OCC*; Sar = CNCC(=O)O

The first test has as its target protein-protein interaction between Kras and SOS1 (biotin-tagged human Kras loaded with GDP, His-tagged human SOS1) (Homo sapiens (Human), UniProt P01116, G12D). Kind of test: Protein-protein interaction inhibition between Kras and SOS1 (KrasG12D-SOS PPI) using AlphaScreen.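 Also: kras produced in E. coli, Ni-coupled donor beads and streptavidin acceptor beads, excitation 680 nm with emission detected at 520–620 nm via singlet oxygen transfer.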 The class given is biochemical.
Conditions: not given
(In general: In Alpha technology, singlet oxygen from a donor bead excites a nearby acceptor bead.)
As for `CC[C@H](C)[C@@H]1NC(=O)[C@H](CC(C)C)N(C)C(=O)C[C@@H](C(=O)N(C)C)N(C)C(=O)[C@H](C2CCCC2)N(C)C(=O)C2(CCCC2)NC(=O)[C@H](CC(=O)N2CCCCC2)N(C)C(=O)[C@H](CCc2ccc(C(F)(F)F)c(Cl)c2)NC(=O)CN(C)C(=O)[C@H](CC2CCCCC2)N(C)C(=O)[C@@H]2CCN2C(=O)[C@H](C)N(C)C1=O` [Compound 2105] ([NMeL]I[NMeA][Aze][NMeCha][Sar][hPhe(3-Cl-4-CF3)][NMeD](Piperidide)[Ac5c][NMeGly(cPent)][NMeD]-NMe2; lactam N-11), the IC50 (in general, the midpoint of a concentration-inhibition curve) amounted to 2.6 nM.

Regarding `CC[C@H](C)[C@@H]1NC(=O)[C@H](CC(C)C)N(C)C(=O)C[C@@H](C(=O)N(C)C)N(C)C(=O)[C@H](C2CCCC2)N(C)C(=O)C2(CCCC2)NC(=O)[C@H](CC(=O)N2CCOCC2)N(C)C(=O)[C@H](CCc2ccc(C(F)(F)F)c(Cl)c2)NC(=O)CN(C)C(=O)[C@H](CC2CCCCC2)N(C)C(=O)[C@@H]2CCN2C(=O)[C@H](C)N(C)C1=O` [Compound 2109] ([NMeL]I[NMeA][Aze][NMeCha][Sar][hPhe(3-Cl-4-CF3)][NMeD](Morpholide)[Ac5c][NMeGly(cPent)][NMeD]-NMe2; lactam N-11), the midpoint of inhibition, the IC50, lay at 1.8 nM.

Staying with this test, now noted: AlphaScreen; biotin-tagged human Kras loaded with GDP, His-tagged human SOS1; read-out: KRAS G12D-SOS PPI IC50.
With `CC[C@H](C)[C@@H]1NC(=O)[C@H](CC(C)C)N(C)C(=O)C[C@@H](C(=O)N2CCOCC2)N(C)C(=O)[C@H](C2CCCC2)N(C)C(=O)C2(CCCC2)NC(=O)[C@H](CCC(=O)N2CCC2)N(C)C(=O)[C@H](CCc2ccc(C(F)(F)F)c(Cl)c2)NC(=O)CN(C)C(=O)[C@H](CC2CCCCC2)N(C)C(=O)[C@@H]2CCN2C(=O)[C@H](C)N(C)C1=O` [Compound 2103] ([NMeL]I[NMeA][Aze][NMeCha][Sar][hPhe(3-Cl-4-CF3)][NMeE](Azetidin(1-yl))[Ac5c][NMeGly(cPent)][NMeD]-Morpholide; lactam N-11), the IC50 turned out to be 8.3 nM.

For the molecule `CC[C@H](C)[C@@H]1NC(=O)[C@H](CC(C)C)N(C)C(=O)C[C@@H](C(=O)N2CCOCC2)N(C)C(=O)[C@H](C2CCCC2)N(C)C(=O)C2(CCCC2)NC(=O)[C@H](CCC(=O)N2CCCC2)N(C)C(=O)[C@H](CCc2ccc(C(F)(F)F)c(Cl)c2)NC(=O)CN(C)C(=O)[C@H](CC2CCCCC2)N(C)C(=O)[C@@H]2CCN2C(=O)[C@H](C)N(C)C1=O` [Compound 2104] ([NMeL]I[NMeA][Aze][NMeCha][Sar][hPhe(3-Cl-4-CF3)][NMeE](Pyrrolidide)[Ac5c][NMeGly(cPent)][NMeD]-Morpholide; lactam N-11), the IC50 was 10 nM.

Consider `CC[C@H](C)[C@@H]1NC(=O)[C@H](CC(C)C)N(C)C(=O)C[C@@H](C(=O)N(C)C)N(C)C(=O)[C@H](C2CCCC2)N(C)C(=O)C2(CCCC2)NC(=O)[C@H](CC(=O)N(C)C)N(C)C(=O)[C@H](CCc2ccc(C(F)(F)F)c(Cl)c2)NC(=O)CN(C)C(=O)[C@H](CC2CCCCC2)N(C)C(=O)[C@@H]2CCN2C(=O)[C@H](C)N(C)C1=O` [Compound 2106, (3S,6S,9S,13S,16S,22S,25S,31S,34S)-25-[2-[3-chloro-4-(trifluoromethyl)phenyl]ethyl]-31-(cyclohexylmethyl)-16-cyclopentyl-22-[2-(dimethylamino)-2-oxo-ethyl]-9-isobutyl-N,N,3,4,10,14,17,23,29,32-decamethyl-6-[(1S)-1-methylpropyl]-2,5,8,11,15,18,21,24,27,30,33-undecaoxo-spiro[1,4,7,10,14,17,20,23,26,29,32-undecazabicyclo[32.2.0]hexatriacontane-19,1-cyclopentane]-13-carboxamide] ([NMeL]I[NMeA][Aze][NMeCha][Sar][hPhe(3-Cl-4-CF3)][NMeD](NMe2)[Ac5c][NMeGly(cPent)][NMeD]-NMe2; lactam N-11), for which the IC50 worked out at 2 nM.

For `CC[C@H](C)[C@@H]1NC(=O)[C@H](CC(C)C)N(C)C(=O)C[C@@H](C(=O)N2CCOCC2)N(C)C(=O)[C@H](C2CCCC2)N(C)C(=O)C2(CCCC2)NC(=O)[C@H](CCC(=O)N2CCOCC2)N(C)C(=O)[C@H](CCc2ccc(C(F)(F)F)c(Cl)c2)NC(=O)CN(C)C(=O)[C@H](CC2CCCCC2)N(C)C(=O)[C@@H]2CCN2C(=O)[C@H](C)N(C)C1=O` [Compound 2107] ([NMeL]I[NMeA][Aze][NMeCha][Sar][hPhe(3-Cl-4-CF3)][NMeE](Morpholide)[Ac5c][NMeGly(cPent)][NMeD]-Morpholide; lactam N-11), the IC50 worked out at 4.8 nM.

For `CC[C@H](C)[C@@H]1NC(=O)[C@H](CC(C)C)N(C)C(=O)C[C@@H](C(=O)N2CCOCC2)N(C)C(=O)[C@H](C2CCCC2)N(C)C(=O)C2(CCCC2)NC(=O)[C@H](CCC(=O)N(C)C)N(C)C(=O)[C@H](CCc2ccc(C(F)(F)F)c(Cl)c2)NC(=O)CN(C)C(=O)[C@H](CC2CCCCC2)N(C)C(=O)[C@@H]2CCN2C(=O)[C@H](C)N(C)C1=O` [Compound 2108, 3-[(3S,6S,9S,13S,16S,22S,25S,31S,34S)-25-[2-[3-chloro-4-(trifluoromethyl)phenyl]ethyl]-31-(cyclohexylmethyl)-16-cyclopentyl-9-isobutyl-3,4,10,14,17,23,29,32-octamethyl-6-[(1S)-1-methylpropyl]-13-(morpholine-4-carbonyl)-2,5,8,11,15,18,21,24,27,30,33-undecaoxo-spiro[1,4,7,10,14,17,20,23,26,29,32-undecazabicyclo[32.2.0]hexatriacontane-19,1′-cyclopentane]-22-yl]-N,N-dimethyl-propanamide] ([NMeL]I[NMeA][Aze][NMeCha][Sar][hPhe(3-Cl-4-CF3)][NMeE](NMe2)[Ac5c][NMeGly(cPent)][NMeD]-Morpholide; lactam N-11), the IC50 came to 7.9 nM.

Take `CCCC[C@@H]1NC(=O)[C@H](Cc2cccc(I)c2)NC(=O)CN(C)C(=O)[C@H](Cc2ccc(OC)cc2)N(C)C(=O)[C@@H]2CCN2C(=O)[C@H](C)N(C)C(=O)[C@H]([C@@H](C)CC)NC(=O)[C@H](CC(C)C)N(C)C(=O)C[C@@H](C(=O)N2CCCCC2)N(C)C(=O)[C@H](CC(C)C)NC(=O)[C@H](CCC(=O)N(C)C)N(C)C1=O` [Compound 2110, 3-[(3S,6S,9S,13S,16S,19S,22S,25S,31S,34S)-22-butyl-25-[(3-iodophenyl)methyl]-9,16-diisobutyl-31-[(4-methoxyphenyl)methyl]-3,4,10,14,20,29,32-heptamethyl-6-[(1S)-1-methylpropyl]-2,5,8,11,15,18,21,24,27,30,33-undecaoxo-13-(piperidine-1-carbonyl)-1,4,7,10,14,17,20,23,26,29,32-undecazabicyclo[32.2.0]hexatriacontan-19-yl]-N,N-dimethyl-propanamide] ([NMeL]I[NMeA][Aze][NMeY](Me)[Sar][Phe(3-I)][Nle][NMeE](NMe2)L[NMeD]-Piperidide; lactam N-11): the IC50 stood at 9.8 nM.

On to `CC[C@H](C)[C@@H]1NC(=O)[C@H](CC(C)C)N(C)C(=O)C[C@@H](C(=O)N2CCOCC2)N(C)C(=O)[C@H](C2CCCC2)N(C)C(=O)C2(CCCC2)NC(=O)[C@H](CCC(=O)N2CCCCC2)N(C)C(=O)[C@H](CCc2ccc(C(F)(F)F)c(Cl)c2)NC(=O)CN(C)C(=O)[C@H](CC2CCCCC2)N(C)C(=O)[C@@H]2CCN2C(=O)[C@H](C)N(C)C1=O` [Compound 2112] ([NMeL]I[NMeA][Aze][NMeCha][Sar][hPhe(3-Cl-4-CF3)][NMeE](Piperidide)[Ac5c][NMeGly(cPent)][NMeD]-Morpholide; lactam N-11), for which the IC50 stood at 11 nM.

`CC[C@H](C)[C@@H]1NC(=O)[C@H](CC(C)C)N(C)C(=O)C[C@@H](C(=O)N2CCCCC2)N(C)C(=O)[C@H](CC(C)C)NC(=O)C(C)(C)N(C)C(=O)[C@H](COc2ccccc2)NC(=O)[C@H](Cc2cccc(I)c2)NC(=O)CN(C)C(=O)[C@H](Cc2ccc(C)cc2)N(C)C(=O)[C@@H]2CCN2C(=O)CN(C)C1=O` [Compound 2114, (6S,9S,13S,16S,22S,25S,31S,34S)-25-[(3-iodophenyl)methyl]-9,16-diisobutyl-4,10,14,19,19,20,29,32-octamethyl-6-[(1S)-1-methylpropyl]-22-(phenoxymethyl)-13-(piperidine-1-carbonyl)-31-(p-tolylmethyl)-1,4,7,10,14,17,20,23,26,29,32-undecazabicyclo[32.2.0]hexatriacontane-2,5,8,11,15,18,21,24,27,30,33-undecone]: the IC50 was determined as 110 nM.

Take `CC[C@H](C)[C@@H]1NC(=O)[C@H](CC(C)C)N(C)C(=O)C[C@@H](C(=O)N2CCCCC2)N(C)C(=O)[C@H](C2CCCCC2)N(C)C(=O)C2(CCCC2)NC(=O)[C@@H]2C[C@H](OCCO)CN2C(=O)[C@H](CCc2ccc(C(F)(F)F)c(Cl)c2)NC(=O)CN(C)C(=O)[C@H](CC2CCCCC2)N(C)C(=O)CN(C)C(=O)CN(C)C1=O` [Compound 2117, (3S,9S,18S,21S,25S,28S,34S,36S)-3-[2-[3-chloro-4-(trifluoromethyl)phenyl]ethyl]-28-cyclohexyl-9-(cyclohexylmethyl)-36-(2-hydroxyethoxy)-21-isobutyl-7,10,13,16,22,26,29-heptamethyl-18-[(1S)-1-methylpropyl]-25-(piperidine-1-carbonyl)spiro[1,4,7,10,13,16,19,22,26,29,32-undecazabicyclo[32.3.0]heptatriacontane-31,1′-cyclopentane]-2,5,8,11,14,17,20,23,27,30,33-undecone] ([NMeL]I[Sar][Sar][NMeCha][Sar][hPhe(3-Cl-4-CF3)][cisHyp](Ethyl(2-OH))[Ac5c][NMeChg][NMeD]-Piperidide; lactam N-11): the IC50 came to 0.41 nM.

Take `CC[C@H](C)[C@@H]1NC(=O)[C@H](CC(C)C)N(C)C(=O)C[C@@H](C(=O)N2CCCCC2)N(C)C(=O)[C@H](C2CCCCC2)N(C)C(=O)C2(CCCC2)NC(=O)[C@@H]2C[C@@H](OCC(F)F)CN2C(=O)[C@H](CCc2ccc(C(F)(F)F)c(Cl)c2)NC(=O)CN(C)C(=O)[C@H](CC2CCCCC2)N(C)C(=O)CN(C)C(=O)CN(C)C1=O` [Compound 2119] ([NMeL]I[Sar][Sar][NMeCha][Sar][hPhe(3-Cl-4-CF3)][Hyp](Ethyl(2,2-F2))[Ac5c][NMeChg][NMeD]-Piperidide; lactam N-11): the IC50 was determined as 0.39 nM.
